Test results reported in patent US5300298A, “Methods of treating obesity with purine related compounds” (The Pennsylvania Research Corporation, priority 1992, dated 1994).

tested on: warm-blooded animal; assay: Example II: tested as BW1433 was tested in Example I (obesity; ratio of muscle mass to fat); type: in vivo, rats
Method: My initial studies were carried out following acute subcutaneous injections of the drug into male Sprague Dawley rats and into lean and into obese Zucker rats. Blood samples (100 microliter) were taken from the tail of the rats and measurements made of serum glycerol^6. Glycerol is an end product of lipolysis and thus an excellent indicator of the rate of whole body lipolysis. […] I discovered that in the absence of the Formula I compound tested, serum glycerol levels only differ slightly when comparing lean and obese animals. Since there is 3-4 times more fat in the obese animal this is good evidence for sluggish lipolysis per g of fat in the obese. The obese animals however seem to mobilize the fat at an earlier time after removal of their food supply (Table 1), since after 6 hours of fasting the obese serum glycerol levels are much higher than the lean.
Next, I studied the effect of chronic treatment with BW1433. For this purpose I employed 2 ml Alzet mini osmotic pumps. Each pump was loaded with 2 ml of a solution containing BW1433 or with vehicle (aqueous solution adjusted to pH II). The amount of BW1433 was adjusted so that the pump delivered either zero, 0.2 mg or 0.4 mg/Kg/hour to each animal. On the first day the animals had the pumps implanted and were given a priming (2 mg/Kg or 4 mg/Kg) dose of the antagonist. Blood was taken prior to surgery and six hours after the animals were removed from their food supply. On each subsequent day animals had free access to food and water overnight, then their food removed for six hours, and a blood sample taken.
In addition to taking blood samples for glycerol analysis, each animal was weighed every day for seven days. After seven days the animals were fasted overnight and a glucose tolerance test given The animals were then sacrificed and 1 ml blood sample taken for serum insulin and serum BW1433 determination drug levels. Insulin levels were measured with RIA kit (Diagnostic Products) and BW1433 levels were measured fluorometrically after HPLC separation at Burroughs Wellcome, Research Triangle Park, North Carolina. […] Nonetheless, when glucose tolerance curves were administered on day 7, drug-related differences could still be seen in all animals studied. […] This is illustrated more clearly in FIG. 4 where the area under the glucose tolerance curve is shown as a bar for each of the 6 groups of animals. […] FIG. 5 is a chart of the change in weight of treated and untreated lean and obese animals. […] The effect on weight change in each case was maximal at day 3, the day when the glycerol values peaked. Based on these remarkable results, the compounds of Formula I can be administered to obese warm-blooded animals as anti-obesity agents, or administered to farm animals to advantageously increase the ratio of muscle mass to fat therein.

Row | Compound | activity in method of treating obesity in a warm-blooded animal and in increasing the ratio of muscle mass to fat in farm animals
1 | Cn1c(=O)c2nc(-c3ccc(/C=C/C(=O)O)cc3)[nH]c2n(Cc2cccc(C#N)c2)c1=O [compound 21, (E)-4-[3-(3-cyanobenzyl)-1,2,3,6-tetrahydro-1-methyl-2,6-dioxo-9H-purin-8-yl]cinnamic acid] | active and effective
2 | Cn1c(=O)c2nc(-c3ccc(/C=C/C(=O)O)cc3)[nH]c2n(Cc2ccc(C#N)cc2)c1=O [compound 20, (E)-4-[3-(4-cyanobenzyl)-1,2,3,6-tetrahydro-1-methyl-2,6-dioxo-9H-purin-8-yl]cinnamic acid] | active and effective
3 | CCn1c(=O)c2nc(-c3ccc(/C=C/C(=O)O)cc3)[nH]c2n(C)c1=O [compound 12, (E)-4-(1-ethyl-1,2,3,6-tetrahydro-3-methyl-2,6-dioxo-9H-purin-8-yl)cinnamic acid] | active and effective
4 | CCCn1c(=O)[nH]c(=O)c2nc(-c3ccc(/C=C/C(=O)O)cc3)[nH]c21 [compound 8, (E)-4-(1,2,3,6-tetrahydro-2,6-dioxo-3-propyl-9H-purin-8-yl)cinnamic acid] | active and effective
5 | Cn1c(=O)[nH]c(=O)c2nc(-c3ccc(/C=C/C(=O)O)cc3)[nH]c21 [compound 6, (E)-4-(1,2,3,6-tetrahydro-3-methyl-2,6-dioxo-9H-purin-8-yl)cinnamic acid] | active and effective
6 | Cn1c(=O)n(Cc2ccc(C#N)cc2)c(=O)c2nc(-c3ccc(/C=C/C(=O)O)cc3)[nH]c21 [compound 23, (E)-4-[1-(4-cyanobenzyl)-1,2,3,6-tetrahydro-3-methyl-2,6-dioxo-9H-purin-8-yl]cinnamic acid] | active and effective
7 | CCn1c(=O)c2nc(-c3ccc(/C=C/C(=O)O)cc3)[nH]c2n(CC)c1=O [compound 4, (E)-4-(1,3-diethyl-1,2,3,6-tetrahydro-2,6-dioxo-9H-purin-8-yl)cinnamic acid] | active and effective
8 | CCn1c(=O)[nH]c(=O)c2nc(-c3ccc(/C=C/C(=O)O)cc3)[nH]c21 [compound 7, (E)-4-(3-ethyl-1,2,3,6-tetrahydro-2,6-dioxo-9H-purin-8-yl)cinnamic acid] | active and effective
9 | Cn1c(=O)c2[nH]c(-c3ccc(/C=C/C(=O)O)cc3)nc2n(C)c1=S [compound 19, (E)-4-(1,2,3,6-tetrahydro-1,3-dimethyl-6-oxo-2-thio-9H-purin-8-yl)cinnamicacid] | active and effective
10 | CC(C)Cn1c(=O)c2nc(-c3ccc(/C=C/C(=O)O)cc3)[nH]c2n(CC(C)C)c1=O [compound 18, (E)-4-(1,2,3,6-tetrahydro-1,3-diisobutyl-2,6-dioxo-9H-purin-8-yl)cinnamic acid] | active and effective
11 | Cn1c(=O)c2nc(-c3ccc(/C=C/C(=O)O)cc3)[nH]c2n(Cc2ccccc2)c1=O [compound 17, (E)-4-(3-benzyl-1,2,3,6-tetrahydro-1-methyl-2,6-dioxo-9H-purin-8-yl)cinnamic acid] | active and effective
12 | CC(C)Cn1c(=O)n(C)c(=O)c2nc(-c3ccc(/C=C/C(=O)O)cc3)[nH]c21 [compound 11, (E)-4-(1,2,3,6-tetrahydro-3-isobutyl-1-methyl-2,6-dioxo-9H-purin-8-yl)cinnamic acid] | active and effective
13 | CCCn1c(=O)n(Cc2ccccc2)c(=O)c2nc(-c3ccc(/C=C/C(=O)O)cc3)[nH]c21 [compound 24, (E)-4-(1-benzyl-1,2,3,6-tetrahydro-2,6-dioxo-3-propyl-9H-purin-8-yl)cinnamic acid] | active and effective
14 | CCCn1c(=O)c2nc(-c3ccc(/C=C/C(=O)O)cc3)[nH]c2n(C)c1=O [compound 3, (E)-4-(1,2,3,6-tetrahydro-3-methyl-2,6-dioxo-1-propyl-9H-purin-8-yl)cinnamic acid] | active and effective
15 | CCCn1c(=O)c2nc(-c3ccc(C#CC(=O)O)cc3)[nH]c2n(CCC)c1=O [compound 22, 3-[4-(1,2,3,6-tetrahydro-2,6-dioxo-1,3-dipropyl-9H-purin-8-yl)phenyl]propiolic acid] | active and effective
16 | C=CCn1c(=O)c2nc(-c3ccc(/C=C/C(=O)O)cc3)[nH]c2n(CC=C)c1=O [compound 5, (E)-4-(1,3-diallyl-1,2,3,6-tetrahydro-2,6-dioxo-9H-purin-8-yl)cinnamic acid] | active and effective
17 | Cn1c(=O)c2nc(-c3ccc(/C=C/C(=O)O)cc3)[nH]c2n(C)c1=O [compound 2, (E)-4-(1,2,3,6-tetrahydro-1,3-dimethyl-2,6-dioxo-9H-purin-8-yl)cinnamic acid] | active and effective
18 | CCCn1c(=O)n(C)c(=O)c2nc(-c3ccc(/C=C/C(=O)O)cc3)[nH]c21 [compound 10, (E)-4-(1,2,3,6-tetrahydro-1-methyl-2,6-dioxo-3-propyl-9H-purin-8-yl)cinnamic acid] | active and effective
19 | CC(C)Cn1c(=O)[nH]c(=O)c2nc(-c3ccc(/C=C/C(=O)O)cc3)[nH]c21 [compound 9, (E)-4-(1,2,3,6-tetrahydro-3-isobutyl-2,6-dioxo-9H-purin-8-yl)cinnamic acid] | active and effective
20 | CCCCn1c(=O)c2nc(-c3ccc(/C=C/C(=O)O)cc3)[nH]c2n(CCCC)c1=O [compound 13, (E)-4-(1,3-dibutyl-1,2,3,6-tetrahydro-2,6-dioxo-9H-purin-8-yl)cinnamic acid] | active and effective
21 | O=C(O)/C=C/c1ccc(-c2nc3c(=O)n(Cc4ccccc4)c(=O)n(Cc4ccccc4)c3[nH]2)cc1 [compound 14, (E)-4-(1,3-dibenzyl-1,2,3,6-tetrahydro-2,6-dioxo-9H-purin-8-yl)cinnamicacid] | active and effective
22 | CCCCn1c(=O)n(C)c(=O)c2nc(-c3ccc(/C=C/C(=O)O)cc3)[nH]c21 [compound 15, (E)-4-(3-butyl-1,2,3,6-tetrahydro-1-methyl-2,6-dioxo-9H-purin-8-yl)cinnamicacid] | active and effective
23 | CCCn1c(=O)c2nc(-c3ccc(/C=C/C(=O)O)cc3)[nH]c2n(Cc2ccccc2)c1=O [compound 25, (E)-4-(3-benzyl-1,2,3,6-tetrahydro-2,6-dioxo-1-propyl-9H-purin-8-yl)cinnamic acid] | active and effective
24 | CCCCn1c(=O)c2nc(-c3ccc(/C=C/C(=O)O)cc3)[nH]c2n(C)c1=O [compound 16, (E)-4-(1-butyl-1,2,3,6-tetrahydro-3-methyl-2,6-dioxo-9H-purin-8-yl)cinnamic acid] | active and effective
